Test results: PubChem BioAssay (NCI)
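Cells were grown in 96-well plates and exposed to each compound for 48 hours at five concentrations; endpoints were interpolated linearly between bracketing concentrations, or set to the highest concentration if not reached. GI50: concentration for 50% inhibition of growth. TGI denotes the concentration required for complete inhibition of growth.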

What was measured:
Test in all cases: NCI anticancer screen, dose series, 48 h
[1] = system: COLO 205 colon
[2] = system: HCT-15 colon
[3] = system: SF-295 CNS
[4] = system: LOX IMVI melanoma
[5] = system: OVCAR-3 ovarian
[6] = system: SW-620 colon
[7] = system: MDA-MB-435
[8] = system: PC-3 prostate
[9] = system: SN12C renal
[10] = system: 786-0 renal
[11] = system: CCRF-CEM leukemia
[12] = system: T-47D breast
[13] = system: SF-539 CNS
[14] = system: MOLT-4 leukemia
[15] = system: MCF7 breast
[16] = system: SK-MEL-2 melanoma
[17] = system: U251 CNS
[18] = system: TK-10 renal
[19] = system: HOP-92 NSCLC
[20] = system: HCC-2998 colon
[21] = system: A549 NSCLC
[22] = system: OVCAR-8 ovarian
[23] = system: CAKI-1 renal
[24] = system: HCT-116 colon
[25] = system: OVCAR-5 ovarian
[26] = system: ACHN renal
[27] = system: NCI-H460 lung
[28] = system: MDA-MB-231 breast
[29] = system: NCI-H522 lung

Which GI50 [1] does the source give for `C/C=C(\C)C(=O)O[C@H]1C=CC(=O)O[C@H]1CCC(=O)[C@H](C)O` here?
Its GI50 is 6.07 µM.

And the TGI [1]?
The TGI was 22.6 µM.

What about the GI50 [2] of the same molecule?
The GI50 was 11.6 µM.

What about the TGI [2] of the same molecule?
Its TGI is 27.1 µM.

And the GI50 [3]?
The GI50 was 23.6 µM.

What about the TGI [3] of the same molecule?
Its TGI is 50.8 µM.

What about the GI50 [4] of the same molecule?
The GI50 was 11.8 µM.

And the TGI [4]?
The TGI was 27.4 µM.

What about the GI50 [5] of the same molecule?
Its GI50 is 9.58 µM.

What about the TGI [5] of the same molecule?
The TGI was 22.3 µM.

And the GI50 [6]?
Its GI50 is 4.9 µM.

What about the TGI [6] of the same molecule?
The TGI was 16.2 µM.

And the GI50 [7]?
Its GI50 is 11.8 µM.

And the TGI [7]?
Its TGI is 27.3 µM.

What about the GI50 [8] of the same molecule?
Its GI50 is 15.8 µM.

What about the TGI [8] of the same molecule?
The TGI was 32 µM.

And the GI50 [9]?
Its GI50 is 18.5 µM.

What about the TGI [9] of the same molecule?
Its TGI is 46.9 µM.

What about the GI50 [10] of the same molecule?
Its GI50 is 14.9 µM.

What about the TGI [10] of the same molecule?
Its TGI is 30.1 µM.

And the GI50 [11]?
Its GI50 is 0.014 µM.

What about the TGI [11] of the same molecule?
The TGI was 9.1 µM.

And the GI50 [12]?
Its GI50 is 10.4 µM.

What about the TGI [12] of the same molecule?
The TGI was 32.3 µM.

What about the GI50 [13] of the same molecule?
The GI50 was 19.2 µM.

What about the TGI [13] of the same molecule?
Its TGI is 35.8 µM.

What about the GI50 [14] of the same molecule?
Its GI50 is 17.6 µM.

And the TGI [14]?
Its TGI is 41.8 µM.

And the GI50 [15]?
Its GI50 is 7.47 µM.

And the TGI [15]?
Its TGI is 21.9 µM.

What about the GI50 [16] of the same molecule?
Its GI50 is 19.1 µM.

What about the TGI [16] of the same molecule?
The TGI was 47.3 µM.

And the GI50 [17]?
The GI50 was 12.9 µM.

What about the TGI [17] of the same molecule?
The TGI was 26.4 µM.

What about the GI50 [18] of the same molecule?
The GI50 was 17.7 µM.

And the TGI [18]?
Its TGI is 34 µM.

What about the GI50 [19] of the same molecule?
The GI50 was 14.3 µM.

What about the TGI [19] of the same molecule?
Its TGI is 28.3 µM.

And the GI50 [20]?
The GI50 was 17.1 µM.

And the TGI [20]?
The TGI was 32.4 µM.

What about the GI50 [21] of the same molecule?
The GI50 was 20.9 µM.

What about the TGI [21] of the same molecule?
The TGI was 46.7 µM.

What about the GI50 [22] of the same molecule?
Its GI50 is 20.7 µM.

What about the TGI [22] of the same molecule?
The TGI was 52.8 µM.

And the GI50 [23]?
The GI50 was 7.16 µM.

And the TGI [23]?
The TGI was 17.3 µM.

What about the GI50 [24] of the same molecule?
Its GI50 is 2.87 µM.

And the TGI [24]?
The TGI was 11.2 µM.

What about the GI50 [25] of the same molecule?
The GI50 was 22.4 µM.

And the TGI [25]?
The TGI was 50.8 µM.

And the GI50 [26]?
The GI50 was 11 µM.

And the TGI [26]?
The TGI was 23.4 µM.

What about the GI50 [27] of the same molecule?
The GI50 was 19.2 µM.

What about the TGI [27] of the same molecule?
The TGI was 43.2 µM.

What about the GI50 [28] of the same molecule?
Its GI50 is 16.8 µM.

And the TGI [28]?
Its TGI is 32.4 µM.

What about the GI50 [29] of the same molecule?
Its GI50 is 13.5 µM.

What about the TGI [29] of the same molecule?
Its TGI is 33.7 µM.
